Measured values published in US20220041647A1, “ESTRA-1,3,5(10)-TRIENE COMPOUNDS CONDENSED IN POSITION 16(17) WITH A PYRAZOLE RING AS INHIBITORS OF 17-HSD1” (FORENDO PHARMA LTD, priority 2018, published 2022).

How the values were obtained:
Assay type in all cases: biochemical
[1] = test system: HSD1 enzyme that is expressed in rabbit placenta tissue; assay: Inhibition of E1 to E2 conversion in rabbit placenta tissue homogenate; conditions: compound 100 nM, 30 nM estrone, 1 mM β-NADPH, 30 min
Protocol: The assay is based on an enzymatic reaction where HSD1 enzyme that is expressed in rabbit placenta tissue converts its natural substance estrone (E1) to estradiol (E2) in the presence of a co-factor β-NADPH.
Homogenization of rabbit placenta tissue: Weight a piece of the frozen tissue into a Precellys ck28 bead tube. Add buffer solution (20 mM KH2PO4 with 1 mM EDTA, pH 7.4) in 1:2 ratio (e.g. 300 mg of tissue:600 μl reaction buffer solution). Insert the bead tubes to homogenizer and homogenize 2×30 s. 6000 rpm.
Centrifugated 5 min., 2600 rpm at +4° C. and collect supernatant. Aliquots of homogenate are stored in −80° C.
Assay—Inhibition of E1 to E2 conversion in rabbit placenta tissue: The reaction takes place in a buffer solution (20 mM KH2PO4 with 1 mM EDTA, pH 7,4), including appropriate amount of rabbit placenta homogenate, co-factor (1 mM β-NADPH), Substrate (30 nM estrone), labelled substrate as tracer (5 nM [^3H]-estrone), and the potential inhibitor at concentrations 1 μM or 0.1 μM. Inhibitor stock solutions were prepared in DMSO. Final concentration of DMSO was adjusted to 1% in all samples. During a 30-minute incubation part of the estrone is converted to estradiol. The reaction is stopped by lowering the pH to 1 with 10% trichloro acetic acid (TCA). The substrate and conversion products are analyzed by HPLC and a Scintillation counter analyzer. Total radioactivity for estrone and estradiol were determined in each sample and percent conversion of estrone to estradiol was calculated according to the following formula:
% conversion=100×{(cpm estradiol in sample with inhibitor)/[(cpm estrone in sample with inhibitor)+(cpm estradiol in sample with inhibitor)]}/{(cpm estradiol in sample without inhibitor)/[(cpm estrone in sample without inhibitor)+(cpm estradiol in sample without inhibitor)]}.
(§1) Percent inhibition was calculated followingly: % inhibition=100−% conversion.

[2] = biological target: T1, recombinant human 17β-HSD1 (Homo sapiens, UniProt P14061); assay: Inhibition of recombinant human 17β-HSD1 (estrone to estradiol conversion, HPLC/radioactivity); conditions: compound 100 nM; 30 nM estrone, 1 mM NADPH, 30 min RT
T1 construct: made in house; host or cells: Sd9 (Sf9) insect cells, baculovirus (Bac to Bac Expression System)
T1 sequence (P14061 1-328): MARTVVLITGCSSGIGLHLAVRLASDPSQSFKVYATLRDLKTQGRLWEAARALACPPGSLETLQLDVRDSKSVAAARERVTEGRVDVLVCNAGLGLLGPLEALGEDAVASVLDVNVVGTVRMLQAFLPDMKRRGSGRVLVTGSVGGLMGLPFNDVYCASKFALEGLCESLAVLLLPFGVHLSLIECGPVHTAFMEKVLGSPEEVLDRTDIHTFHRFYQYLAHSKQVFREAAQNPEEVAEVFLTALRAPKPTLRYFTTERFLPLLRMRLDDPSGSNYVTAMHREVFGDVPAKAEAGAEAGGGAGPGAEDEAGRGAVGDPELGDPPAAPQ
Protocol: 17β-HSD1 production and isolation: Recombinant baculovirus was generated by the “Bac to Bac Expression System” (Invitrogen). Recombinant bacmid was transfected to Sd9 insect cells using “Cellfectin Reagent” (Invitrogen). 60 h later cells were harvested; the microsomal fraction was isolated as described by Puranen, T. J., Poutanen, M. H., Peltoketo, H. E., Vihko, P. T. and Vihko, R. K. (1994) Site-directed mutagenesis of the putative active site of human 17 β-hydroxysteroid dehydrogenase type 1. Biochem. J. 304: 289-293. Aliquots were stored frozen until determination of enzymatic activity.
Assay—Inhibition of recombinant human 17β-HSD1: Recombinant protein (1 μg/ml) was incubated in 20 mM KH2PO4 pH 7.4 with 30 nM estrone (including 800 000 cpm/ml of ^3H-estrone) and 1 mM NADPH for 30 min at RT, in the presence of the potential inhibitor at concentrations 1 μM or 0.1 μM. Inhibitor stock solutions were prepared in DMSO. Final concentration of DMSO was adjusted to 1% in all samples. The enzyme reaction was stopped by addition of 10% trichloroacetic acid (final concentration). Samples were centrifuged in a microtiter plate at 4000 rpm for 10 min. Supernatants were applied to reverse phase HPLC on a Waters Symmetry C18 column, equipped with a Waters Sentry Guard column. Isocratic HPLC runs were performed at RT at a flow rate of 1 ml/min in acetonitrile:water 48:52 as running solvent. Radioactivity was monitored in the eluate by a Scintillation Analyzer. Total radioactivity for estrone and estradiol were determined in each sample and percent conversion of estrone to estradiol was calculated according to the following formula:
% conversion=100×{(cpm estradiol in sample with inhibitor)/[(cpm estrone in sample with inhibitor)+(cpm estradiol in sample with inhibitor)]}/{[(cpm estradiol in sample without inhibitor)/[(cpm estrone in sample without inhibitor)+(cpm estradiol in sample without inhibitor)]}.
as §1

[3] = biological target: T2, recombinant human 17β-HSD2 (Homo sapiens, UniProt P37059); assay: Inhibition of recombinant human 17β-HSD2 (estradiol to estrone conversion, HPLC/radioactivity); conditions: compound 1 μM; 50 nM estradiol, 1 mM NADH, 30 min RT
T2 construct: made in house; host or cells: Sd9 (Sf9) insect cells, baculovirus (Bac to Bac Expression System)
T2 sequence (P37059 1-387): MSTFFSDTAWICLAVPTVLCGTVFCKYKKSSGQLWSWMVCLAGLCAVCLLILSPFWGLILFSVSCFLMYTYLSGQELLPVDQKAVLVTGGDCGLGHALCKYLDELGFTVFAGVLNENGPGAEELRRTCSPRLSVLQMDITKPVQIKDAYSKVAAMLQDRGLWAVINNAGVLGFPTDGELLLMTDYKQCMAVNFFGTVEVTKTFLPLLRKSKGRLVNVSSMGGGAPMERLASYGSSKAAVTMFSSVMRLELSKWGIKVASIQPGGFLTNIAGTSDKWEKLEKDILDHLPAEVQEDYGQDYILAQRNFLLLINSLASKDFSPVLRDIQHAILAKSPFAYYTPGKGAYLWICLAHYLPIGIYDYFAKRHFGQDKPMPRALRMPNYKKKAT
Protocol: 17β-HSD2 production and isolation: Similarly to 173-HSD1 the Recombinant baculovirus was generated by the “Bac to Bac Expression System” (Invitrogen). Recombinant bacmid was transfected to Sd9 insect cells using “Cellfectin Reagent” (Invitrogen). 60 h later cells were harvested and supernatant were fractionated by the following protocol: • cells were dissolved into 40 ml of A-buffer (40 mM TRIS, pH8.0, 20% glycerol, 20 μM NAD, 0.4 mM PMSF, 150 mM NaCl, 0.5% dodecyl-β-maltoside+protease inhibitor cocktail) • cells were sonicated • lysate was incubated on ice for 15 min • lysate was centrifuged 5000 rpm 15 min, +4° C. • centrifugation of the supernatant 180 000 g 30 min, +4° C. • pellet was dissolved into 8 ml of A-buffer • not resuspended material was removed by centrifugation 5000 rpm 15 min, +4° C. • the clear supernatant was divided into 100 μl aliquots and were stored frozen until determination of enzymatic activity.
The amount of 173-HSD2 was analysed by immunoblotting and total protein concentration of each extract batch was determined.
Assay—Inhibition of recombinant human 17β-HSD2: Recombinant protein (4 μg/ml) was incubated in 20 mM KH2PO4 pH 8.5 with 50 nM estradiol (including 800 000 cpm/ml of ^3H-estradiol) and 1 mM NADH for 30 min at RT, in the presence of the potential inhibitor at concentrations 1 μM or 0.1 μM. Inhibitor stock solutions were prepared in DMSO. Final concentration of DMSO was adjusted to 1% in all samples. The enzyme reaction was stopped by addition of 10% trichloroacetic acid (final concentration). Samples were centrifuged in a microtiter plate at 4000 rpm for 10 min. Supernatants were applied to reverse phase HPLC on a Waters Symmetry C18 column, equipped with a Waters Sentry Guard column. Isocratic HPLC runs were performed at RT at a flow rate of1 ml/min in acetonitrile:water 48:52 as running solvent. Radioactivity was monitored in the eluate by a Scintillation Analyzer. Total radioactivity for estrone and estradiol were determined in each sample and percent conversion of estradiol to estrone was calculated according to the following formula:
% conversion=100×{(cpm estrone in sample with inhibitor)/[(cpm estradiol in sample with inhibitor)+(cpm estrone in sample with inhibitor)]}/{[(cpm estrone in sample without inhibitor)/[(cpm estradiol in sample without inhibitor)+(cpm estrone in sample without inhibitor)]}.
as §1

Row | Compound | Rabbit placenta inhibition % @100 nM [1] [%] | inhibition at 0.1 µM [2] [%] | inhibition at 1 µM [3] [%]
1 | C[C@]12CCC3c4cccc(F)c4CCC3C1[C@H](CCC(=O)Nc1ccc(C#N)cn1)c1c[nH]nc12 (stereo partly drawn) [Compound 3, N-(5-Cyanopyridin-2-yl)-3-((8aS,12S)-3-fluoro-8a-methyl-1,2,6b,7,8,8a,10,12,12a,12b-decahydronaphtho[2′,1′:4,5]indeno[1,2-c]pyrazol-12-yl)propanamide] | 54 | 98 | 9
2 | COc1ccc(NC(=O)CC[C@@H]2c3c[nH]nc3[C@@]3(C)CCC4c5cccc(F)c5CCC4C23)nn1 (stereo partly drawn) [Compound 6, 3-((8aS,12S)-3-fluoro-8a-methyl-1,2,6b,7,8,8a,10,12,12a,12b-decahydronaphtho[2′,1′:4,5]indeno[1,2-c]pyrazol-12-yl)-N-(6-methoxypyridazin-3-yl)propanamide] | 86 | 93 | 8
3 | C[C@]12CCC3c4cccc(F)c4CCC3C1[C@H](CCC(=O)Nc1ccc(F)cn1)c1c[nH]nc12 (stereo partly drawn) [Compound 12, 3-((8aS,12S)-3-fluoro-8a-methyl-1,2,6b,7,8,8a,10,12,12a,12b-decahydronaphtho[2′,1′:4,5]indeno[1,2-c]pyrazol-12-yl)-N-(5-fluoropyridin-2-yl)propanamide] | 46 | 92 | 5
4 | Cc1ccnc(NC(=O)CC[C@@H]2c3c[nH]nc3[C@@]3(C)CCC4c5cccc(F)c5CCC4C23)c1 (stereo partly drawn) [Compound 27, 3-((8aS,12S)-3-fluoro-8a-methyl-1,2,6b,7,8,8a,10,12,12a,12b-decahydronaphtho[2′,1′:4,5]indeno[1,2-c]pyrazol-12-yl)-N-(4-methylpyridin-2-yl)propanamide] | 55 | 96 | 2
5 | CN(CC1CC1)C(=O)CC[C@@H]1c2c[nH]nc2[C@@]2(C)CCC3c4cccc(F)c4CCC3C12 (stereo partly drawn) [Compound 60, N-(cyclopropylmethyl)-3-((8aS,12S)-3-fluoro-8a-methyl-1,2,6b,7,8,8a,10,12,12a,12b-decahydronaphtho[2′,1′:4,5]indeno[1,2-c]pyrazol-12-yl)-N-methylpropanamide] | 16 | 93 | 9
6 | Cn1cc(NC(=O)CC[C@@H]2c3c[nH]nc3[C@@]3(C)CCC4c5cccc(F)c5CCC4C23)cn1 (stereo partly drawn) [Compound 63, 3-((8aS,12S)-3-fluoro-8a-methyl-1,2,6b,7,8,8a,10,12,12a,12b-decahydronaphtho[2′,1′:4,5]indeno[1,2-c]pyrazol-12-yl)-N-(1-methyl-1H-pyrazol-4-yl)propanamide] | 62 | 96 | 2
7 | CC(C)(C)NC(=O)CC[C@@H]1c2c[nH]nc2[C@@]2(C)CCC3c4cccc(F)c4CCC3C12 (stereo partly drawn) [Compound 72, N-(tert-butyl)-3-((8aS,12S)-3-fluoro-8a-methyl-1,2,6b,7,8,8a,10,12,12a,12b-decahydronaphtho[2′,1′:4,5]indeno[1,2-c]pyrazol-12-yl)propanamide] | – | 93 | 2
8 | C[C@]12CCC3c4ccc(F)cc4CCC3C1[C@H](CCC(=O)N1CCCC1)c1c[nH]nc12 (stereo partly drawn) [Compound 117, 3-((8aS,12S)-4-fluoro-8a-methyl-1,2,6b,7,8,8a,10,12,12a,12b-decahydronaphtho[2′,1′:4,S]indeno[1,2-c]pyrazol-12-yl)-1-(pyrrolidin-1-yl)propan-1-one] | – | 73 | 2
9 | C[C@]12CCC3c4ccccc4CCC3C1[C@H](CCC(=O)N1CCOCC1)c1c[nH]nc12 (stereo partly drawn) [Compound 249, 3-((8aS,12S)-8a-methyl-1,2,6b,7,8,8a,10,12,12a,12b-decahydronaphtho[2′,1′:4,5]indeno[1,2-c]pyrazol-12-yl)-1-morpholinopropan-1-one] | – | 59 | 7
10 | C[C@]12CCC3c4ccccc4CCC3C1[C@H](CCC(=O)Nc1ncc(F)cc1F)c1c[nH]nc12 (stereo partly drawn) [Compound 261, N-(3,5-difluoropyridin-2-yl)-3-((8aS,12S)-8a-methyl-1,2,6b,7,8,8a,10,12,12a,12b-decahydronaphtho[2′,1′:4,5]indeno[1,2-c]pyrazol-12-yl)propanamide] | – | 50 | 9
11 | C[C@]12CCC3c4ccccc4CCC3C1[C@H](CCC(=O)Nc1ncccc1F)c1c[nH]nc12 (stereo partly drawn) [Compound 264, N-(3-fluoropyridin-2-yl)-3-((8aS,12S)-8a-methyl-1,2,6b,7,8,8a,10,12,12a,12b-decahydronaphtho[2′,1′:4,5]indeno[1,2-c]pyrazol-12-yl)propanamide] | – | 54 | 4
